In patent publication US20260242478A1, “ANTIBODIES FOR TARGETING PSMA AND CD28 AND USES THEREOF” (Janux Therapeutics, Inc., priority 2023, published 2026):
Where no end group is shown, it is not given here.

system: anti-CD28 scFv; test: Panning ELISA of clonal phage, anti-CD28 scFv, with or without CD28 soluble protein (Peptide-9 library); type: binding; settings: Peptide-9 library, background (no anti-CD28 scFv)
Method: Clonal phage were harvested as crude supernatants and screened via standard enzyme linked immunosorbent assays (ELISAs). […] Prior to the addition of clonal phage, wells were incubated with blocking buffer and CD28 soluble protein or blocking buffer alone. Without washing or aspirating, clonal phage supernatants were then added to the wells and incubated for a short time. Wells were then washed followed by detection of bound phage using a horse radish peroxidase conjugated anti-M13 antibody. Clonal phage of interest were then sent for sequence analysis.

Chain of anti-CD28 scFv (as listed by the source): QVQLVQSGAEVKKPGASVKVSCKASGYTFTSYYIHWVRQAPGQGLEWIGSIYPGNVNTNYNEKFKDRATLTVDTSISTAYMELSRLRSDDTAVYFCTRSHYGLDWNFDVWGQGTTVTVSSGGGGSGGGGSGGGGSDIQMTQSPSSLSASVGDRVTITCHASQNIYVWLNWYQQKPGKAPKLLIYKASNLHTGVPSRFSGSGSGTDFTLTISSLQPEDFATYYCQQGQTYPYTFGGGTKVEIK

Substance	Background signal
Phage-452 (MDWCPRDWWHMCFN)	0.100
Phage-65 (MDWCPMYLWNECFN; left off: large carriers)	0.064
Phage-123 (MDWCPIHLWNECFA)	0.104
Phage-44 (MDWCPIALWAECFN; not fully specified; cysteine pairing not given here)	0.111
Phage-408 (MFWCPKDMWAECFA)	0.099
Phage-96 (MDWCPRTLWAYCFN)	0.070
Phage-410 (IDWCPRYMWHECFF)	0.098
Phage-52 (MDWCPINLWDECFS; not fully specified; cysteine pairing not given here)	0.062
Phage-427 (VILCPTTMWNRCFH)	0,100
Phage-414 (LYWCPRDMWAYCYS)	0.068
Phage-129 (MDWCPSYLWTVCFA)	0.062
Phage-428 (MNWCPSTMWNRCLT)	0.067
Phage-409 (LHWCPITMWTYCYY)	0.229
Phage-60 (MDWCPRTLWYLCFN; left off: large carriers)	0.508
Phage-434 (IVWCPTTQWNRCAT)	0.113
Phage-49 (MSWCPIHLWNECFN; not fully specified; cysteine pairing not given here)	0.083
Phage-453 (MDWCPSDYWYVCFA)	0.065
Phage-441 (MDWCPRDRWDDCFF)	0.114
Phage-431 (MAWCPADQWHECFN)	0.076
Phage-112 (MHWCPRALWDVCYN)	0.077
Phage-120 (MDWCPRDLWHACFS)	0.074
Phage-444 (VNQCTRYRWAECLN)	0.465
Phage-125 (MDWCPVSLWHVCFY)	0.107
Phage-402 (MDWCPRHMWHECFH)	0.067
Phage-411 (MSWCPRFMWHECFN)	0.081

Substance	Background signal
Phage-138 (MDWCPTNLWHECFA)	0.061
Phage-98 (MDWCPKYLWDVCFN)	0.096
Phage-116 (MDWCPRDLWYACFA)	0.072
Phage-50 (MDWCPPYLWNVCFS; not fully specified; cysteine pairing not given here)	0.063
Phage-422 (MYWCPINMWDYCYA)	0.122
Phage-446 (MDWCPRDRWDDCFN)	0.069
Phage-53 (MDWCPMHLWNKCFN; not fully specified; cysteine pairing not given here)	0.071
Phage-141 (MDWCPRSLWNVCFF)	0.106
Phage-45 (MDWCPRPLWHECFS; not fully specified; cysteine pairing not given here)	0.078
Phage-58 (MHWCPIDRWADCFN; left off: large carriers)	0.074
Phage-400 (MHWCPTYMWSECFA)	0.070
Phage-122 (MDWCPRDLWDQCYA)	0.059
Phage-134 (MDWCPSYLWHECFA)	0.096
Phage-405 (MDWCPMSMWAFCFD)	0.102
Phage-443 (MDWCPMTRWNDCYF)	0.081
Phage-39 (MDWCPMHLWHQCFN; not fully specified; cysteine pairing not given here)	0.073
Phage-41 (MAWCPRDKWSECFS; not fully specified; cysteine pairing not given here)	0.062
Phage-430 (IHLCHWVPWIKCSH)	2.516
Phage-407 (MNWCPIHMWNQCFA)	0.085
Phage-412 (QHWCPRDMWNDCYA)	0.066
Phage-133 (MDWCPRFLWDECFF)	0.064
Phage-117 (MDWCPRYLWFECFS)	0.079
Phage-415 (MDWCPMYMWHKCFH)	0.099
Phage-404 (MDWCPRDMWTSCFN)	0,100
Phage-97 (MDWCPKDLWDYCFA)	0.078

same assay, conditions: background (no anti-CD28 scFv)

Substance	Background signal
Phage-342 (MDWCPRNLWHECFA)	0.067
Phage-321 (MDWCPRDLWYVCFA)	0.095
Phage-325 (MDWCPAYLWDECFA)	0.096
Phage-336 (MDWCPRDLWNWCFN)	0.139
Phage-360 (MDWCPMFLWHECFS)	0.092
Phage-367 (MDWCPSFLWYECFN)	0.063
Phage-314 (MDWCPIHLWNECFN)	0.074
Phage-362 (MDWCPRILWHECFS)	0.064
Phage-332 (IDWCPRALWDACLA)	0.269
Phage-323 (MDWCPTYLWNVCFA)	0.085
Phage-396 (TDWCPRDMWYLCFN)	0.082
Phage-374 (MAWCPLDLWDKCFY)	0.079
Phage-341 (MDWCPRHLWDECFN)	0.084
Phage-337 (MDWCPKPLWHVCFA)	0.069
Phage-319 (MSWCPRDLWHLCFF)	0.077
Phage-350 (MDWCPWFLWNECFN)	0.158
Phage-375 (MNWCPRALWHECFL)	0.085
Phage-317 (MDWCPRHLWHECFT)	0.103
Phage-345 (MDFCPRFLWHECFN)	0.063
Phage-274 (WVSCLRHHWLECFH; not fully specified; cysteine pairing not given here)	0.781
Phage-381 (MAWCPRILWHQCFN)	0.113
Phage-331 (MDWCPRHLWDECFY)	0.098
Phage-343 (MDWCPRDLWTQCFF)	0.065

Substance	Background signal
Phage-368 (MSWCPPYLWTVCYN)	0.176
Phage-384 (IMWCPTSLWNRCVT)	0.104
Phage-308 (MDWCPKSLWAECFN)	0.395
Phage-376 (MDWCPRHLWTYCFH)	0.109
Phage-302 (MDWCPRYLWHVCFD)	0.068
Phage-369 (MHWCPRDLWYECFA)	0.072
Phage-393 (MDWCPRDMWFECFN)	0.069
Phage-283 (MDWCPRHLWNECFN)	0.079
Phage-304 (MDWCPKFLWDECFA)	0.311
Phage-273 (IDWCPTAGWTYCWF; not fully specified; cysteine pairing not given here)	0.071
Phage-344 (MDWCPRHLWVHCFS)	0.096
Phage-359 (MDWCPRPLWHECFA)	0.063
Phage-351 (MDWCPMNLWHECFA)	0.080
Phage-365 (MDWCPSYLWPVCFN)	0.079
Phage-307 (MDWCPRYLWPVCFH)	0.179
Phage-300 (MDWCPRHLWFECFF)	0.178
Phage-299 (MDWCPIYLWAECFN)	0.078
Phage-398 (MDWCPRNMWNECFF)	0.095
Phage-320 (MDWCPTYLWNECFN)	0.120
Phage-361 (MHWCPRHLWSECFN)	0.165
Phage-338 (MDWCPRFLWNECFY)	0.143
Phage-271 (MDWCPTSFWNRCFH; not fully specified; cysteine pairing not given here; also: large carriers left off)	0.102
Phage-327 (MHWCPRDLWHVCFN)	0.071

Substance	Background signal
Phage-397 (MDWCPRAMWDYCFY)	0.123
Phage-366 (MHWCPLYLWDECFY)	0.153
Phage-281 (MDWCPRSLWFLCFN)	1.110
Phage-333 (MDWCPTDLWHECFA)	0.078
Phage-377 (MDWCPFDLWLECFN)	0.087
Phage-349 (LDWCPRHLWALCFN)	0.073
Phage-388 (MDWCPRFMWNFCFF)	2.200
Phage-285 (MDWCPRDLWAMCFA)	0.071
Phage-293 (MDWCPRHLWFECFN)	0.064
Phage-272 (MVWCMSVGWAVCLN; cysteine pairing not given here; also: large carriers left off)	0.289
Phage-280 (MDWCPRYLWDYCFA)	0.073
Phage-303 (MDWCPRYLWTECFS)	0.074
Phage-322 (MDWCPRHLWIECFN)	0.339
Phage-270 (MDWCPRDFWAFCFF; cysteine pairing not given here; also: large carriers left off)	0.118
Phage-282 (MDWCPRDLWFACFA)	0.060
Phage-328 (MDWCPRALWDHCFN)	0.323
Phage-399 (MDWCPRSMWDSCFN)	0.332
Phage-378 (MHWCPLHLWNECFA)	0.065
Phage-316 (MDWCPRSLWNYCFA)	0.067
Phage-352 (MDWCPIHLWYECFN)	0.080
Phage-379 (MDWCPRNLWAECFS)	0.061
Phage-334 (MDWCPRYLWDECFS)	0.069

same assay, conditions: binding to anti-CD28 scFv in presence of CD28 soluble protein

Substance	CD28 scFv signal in presence of CD28
Phage-273 (IDWCPTAGWTYCWF; not fully specified; cysteine pairing not given here)	0.075
